Test results from article PMC6658782, “The Novel Arylamidine T-2307 Selectively Disrupts Yeast Mitochondrial Function by Inhibiting Respiratory Chain Complexes” (Antimicrobial Agents and Chemotherapy, 2019).

Legend:
[1] = biological target: respiratory chain complex II + III (Bos taurus, UniProt P00125+P00157+P13272); experiment: MitoCheck complex II/III activity assay, bovine heart mitochondria; type: biochemical; settings: bovine heart; 1 mM TTFA, 5 μg/ml antimycin A; read-out: Inhibition (%) of positive control, Complex II+III
whole yeast cells = experiment: Oxygen consumption of whole yeast cells (oxygen electrode); type: cell-based, Saccharomyces cerevisiae; settings: T-2307 30, 100, 300, 1,000 μM; antimycin A 10 μg/ml; CCCP 4 μM; 23°C; 3 × 10^7 cells/ml
[2] = biological target: T1, respiratory chain complex II + III (Candida albicans, UniProt A0A1D8PHA3+A0A1D8PJX3+P0C8L0); experiment: Respiratory chain enzymatic activity, complexes II plus III, C. albicans; type: biochemical; settings: C. albicans; 10 mM malonic acid, 10 μg/ml antimycin A; read-out: Inhibition (%) of positive control, Complex II+III
T1 sequence (P0C8L0 1-387): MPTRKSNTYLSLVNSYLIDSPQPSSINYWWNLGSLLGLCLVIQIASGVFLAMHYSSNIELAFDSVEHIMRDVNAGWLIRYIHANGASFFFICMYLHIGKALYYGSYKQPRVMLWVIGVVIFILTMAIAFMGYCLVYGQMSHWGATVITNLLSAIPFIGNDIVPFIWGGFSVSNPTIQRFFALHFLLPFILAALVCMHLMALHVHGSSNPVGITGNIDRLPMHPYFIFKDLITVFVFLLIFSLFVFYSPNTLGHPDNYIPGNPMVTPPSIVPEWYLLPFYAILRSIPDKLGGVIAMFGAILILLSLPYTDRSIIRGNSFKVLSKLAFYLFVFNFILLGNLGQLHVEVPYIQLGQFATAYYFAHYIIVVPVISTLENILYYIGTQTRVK
T1 sequence (A0A1D8PHA3 43-288): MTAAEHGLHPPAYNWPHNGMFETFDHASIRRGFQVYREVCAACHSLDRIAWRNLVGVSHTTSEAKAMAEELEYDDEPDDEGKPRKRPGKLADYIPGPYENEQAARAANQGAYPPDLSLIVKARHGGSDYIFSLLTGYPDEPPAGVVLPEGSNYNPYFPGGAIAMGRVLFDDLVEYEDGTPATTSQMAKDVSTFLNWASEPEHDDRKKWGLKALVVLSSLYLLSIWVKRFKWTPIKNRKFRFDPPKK
T1 sequence (A0A1D8PJX3 30-213): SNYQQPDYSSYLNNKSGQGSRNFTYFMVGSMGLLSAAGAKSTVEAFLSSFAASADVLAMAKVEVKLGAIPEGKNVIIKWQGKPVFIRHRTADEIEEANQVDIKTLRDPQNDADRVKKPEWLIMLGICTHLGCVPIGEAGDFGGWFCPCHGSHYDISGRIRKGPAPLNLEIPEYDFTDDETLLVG

Saccharomyces cerevisiae = experiment: Intracellular ATP levels in yeast (luminescence assay); type: cell-based; settings: 8 h exposure at 30°C, semisynthetic medium; antimycin A 0.5 μg/ml
Protocol: Intracellular ATP levels were measured using a previously described method with the following modifications ([25]). S. cerevisiae was grown overnight in a semisynthetic medium (per liter: 20 g of lactate, 0.5 g of glucose, 3 g of yeast extract, 1 g of KH2PO4, 1 g of NH4Cl, 0.5 g of CaCl2·2H2O, 0.5 g of NaCl, and 0.6 g of MgCl2·6H2O; adjusted to pH 5.5 with NaOH). The cells were harvested during the logarithmic-growth phase by centrifugation (3,000 × g at room temperature for 5 min). They were then washed and resuspended in distilled water. The suspension was diluted in a semisynthetic medium to yield 1 × 10^6 cells/ml. After 5 min of incubation at 30°C, T-2307 and antimycin A were added to the suspension. Further, the cells were incubated for 8 h at 30°C. Subsequently, the cells were collected by centrifugation (4,200 × g at 4°C for 5 min). After washes performed with phosphate-buffered saline (PBS; pH 7.2), the cells were resuspended in PBS and diluted to yield 1 × 10^6 cells/ml. ATP levels were measured using the BacTiter-Glo microbial cell viability assay (Promega, Madison, WI, USA), following the manufacturer’s instructions. Luminescence was measured using a microplate reader POLARstar Optima (BMG Labtech GmbH). To determine the viable cell counts, the cell suspension was diluted with PBS and spread on YPD agar. After a 2-day incubation at 30°C, colonies were counted. The intracellular ATP level is expressed as relative light units (RLU)/CFU.

[3] = biological target: respiratory chain complex II + III (Saccharomyces cerevisiae, UniProt P00163+P07143+P08067); experiment: Respiratory chain enzymatic activity, complexes II plus III, S. cerevisiae; type: biochemical; settings: S. cerevisiae; 10 mM malonic acid, 10 μg/ml antimycin A; read-out: Inhibition (%) of positive control, Complex II+III
[4] = biological target: respiratory chain complex II (Saccharomyces cerevisiae, UniProt P21801+P33421+P37298+Q00711); experiment: Respiratory chain enzymatic activity, complex II, S. cerevisiae; type: biochemical; settings: S. cerevisiae; 10 mM malonic acid; read-out: Inhibition (%) of positive control, Complex II
respiratory chain complex II (Saccharomyces cerevisiae, UniProt P21801+P33421+P37298+Q00711), sequence (P21801 21-266): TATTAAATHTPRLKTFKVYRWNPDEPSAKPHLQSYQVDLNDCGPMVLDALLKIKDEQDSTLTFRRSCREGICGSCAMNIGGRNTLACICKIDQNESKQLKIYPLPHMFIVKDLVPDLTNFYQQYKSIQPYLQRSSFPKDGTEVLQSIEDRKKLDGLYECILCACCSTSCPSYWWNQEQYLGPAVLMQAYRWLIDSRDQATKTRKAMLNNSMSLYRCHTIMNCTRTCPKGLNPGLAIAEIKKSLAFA
respiratory chain complex II (Saccharomyces cerevisiae, UniProt P21801+P33421+P37298+Q00711), sequence (P33421 51-198): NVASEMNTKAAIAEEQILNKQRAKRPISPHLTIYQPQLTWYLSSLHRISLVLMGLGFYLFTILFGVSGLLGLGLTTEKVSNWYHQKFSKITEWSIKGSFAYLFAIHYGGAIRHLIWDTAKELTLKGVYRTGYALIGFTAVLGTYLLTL
respiratory chain complex II (Saccharomyces cerevisiae, UniProt P21801+P33421+P37298+Q00711), sequence (P37298 32-181): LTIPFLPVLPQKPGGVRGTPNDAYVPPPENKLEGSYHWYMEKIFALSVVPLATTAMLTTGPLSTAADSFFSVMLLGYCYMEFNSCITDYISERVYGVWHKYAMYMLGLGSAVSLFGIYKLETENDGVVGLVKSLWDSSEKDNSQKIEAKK
respiratory chain complex II (Saccharomyces cerevisiae, UniProt P21801+P33421+P37298+Q00711), sequence (Q00711 29-640): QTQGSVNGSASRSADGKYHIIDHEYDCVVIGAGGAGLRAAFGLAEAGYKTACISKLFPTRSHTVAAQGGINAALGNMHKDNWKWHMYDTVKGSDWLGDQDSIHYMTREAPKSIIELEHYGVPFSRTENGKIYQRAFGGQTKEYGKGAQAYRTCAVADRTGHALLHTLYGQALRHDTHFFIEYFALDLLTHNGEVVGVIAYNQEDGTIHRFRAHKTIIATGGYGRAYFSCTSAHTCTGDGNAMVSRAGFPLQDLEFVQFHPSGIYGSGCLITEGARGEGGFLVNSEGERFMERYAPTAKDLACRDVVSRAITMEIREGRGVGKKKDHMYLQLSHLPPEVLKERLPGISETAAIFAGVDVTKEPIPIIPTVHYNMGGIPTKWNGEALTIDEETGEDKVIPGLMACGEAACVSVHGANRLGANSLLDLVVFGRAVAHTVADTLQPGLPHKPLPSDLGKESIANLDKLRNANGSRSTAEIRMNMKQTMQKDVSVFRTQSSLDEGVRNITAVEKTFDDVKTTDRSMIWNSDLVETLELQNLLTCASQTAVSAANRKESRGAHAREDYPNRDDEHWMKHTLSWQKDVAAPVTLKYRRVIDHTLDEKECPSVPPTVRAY

[5] = biological target: respiratory chain complex II (Candida albicans, UniProt Q59QN7+Q5A1E8+Q5AJZ8+Q5ALU6); experiment: Respiratory chain enzymatic activity, complex II, C. albicans; type: biochemical; settings: 10 mM malonic acid, read-out: Inhibition (%) of positive control, Complex II
respiratory chain complex II (Candida albicans, UniProt Q59QN7+Q5A1E8+Q5AJZ8+Q5ALU6), sequence (Q5A1E8 26-641): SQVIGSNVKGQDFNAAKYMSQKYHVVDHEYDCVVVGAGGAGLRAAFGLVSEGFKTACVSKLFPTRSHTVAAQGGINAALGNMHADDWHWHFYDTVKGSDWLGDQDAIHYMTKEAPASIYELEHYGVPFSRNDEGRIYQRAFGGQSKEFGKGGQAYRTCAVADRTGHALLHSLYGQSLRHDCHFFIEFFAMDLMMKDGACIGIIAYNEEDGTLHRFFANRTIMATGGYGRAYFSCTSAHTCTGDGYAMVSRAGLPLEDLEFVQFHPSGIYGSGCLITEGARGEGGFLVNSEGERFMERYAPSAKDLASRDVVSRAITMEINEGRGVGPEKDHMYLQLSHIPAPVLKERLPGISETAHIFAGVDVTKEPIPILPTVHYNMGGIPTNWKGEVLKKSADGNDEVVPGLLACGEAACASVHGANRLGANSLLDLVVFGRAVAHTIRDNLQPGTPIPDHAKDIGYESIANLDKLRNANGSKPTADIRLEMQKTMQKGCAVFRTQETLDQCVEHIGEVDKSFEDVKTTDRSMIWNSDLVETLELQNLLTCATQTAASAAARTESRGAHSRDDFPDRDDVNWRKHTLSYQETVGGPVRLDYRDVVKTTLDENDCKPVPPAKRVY
respiratory chain complex II (Candida albicans, UniProt Q59QN7+Q5A1E8+Q5AJZ8+Q5ALU6), sequence (Q59QN7 20-263): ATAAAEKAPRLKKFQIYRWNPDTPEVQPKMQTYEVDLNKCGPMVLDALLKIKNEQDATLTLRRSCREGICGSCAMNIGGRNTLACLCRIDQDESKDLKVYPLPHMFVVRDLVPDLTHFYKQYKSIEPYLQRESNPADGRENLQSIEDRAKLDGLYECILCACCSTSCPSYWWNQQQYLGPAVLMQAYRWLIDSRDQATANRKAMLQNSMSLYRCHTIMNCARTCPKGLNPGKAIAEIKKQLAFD
respiratory chain complex II (Candida albicans, UniProt Q59QN7+Q5A1E8+Q5AJZ8+Q5ALU6), sequence (Q5ALU6 32-176): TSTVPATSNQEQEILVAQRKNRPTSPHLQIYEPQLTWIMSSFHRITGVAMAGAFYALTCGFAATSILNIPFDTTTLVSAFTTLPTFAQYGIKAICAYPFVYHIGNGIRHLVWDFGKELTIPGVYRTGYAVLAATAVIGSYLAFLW
respiratory chain complex II (Candida albicans, UniProt Q59QN7+Q5A1E8+Q5AJZ8+Q5ALU6), sequence (Q5AJZ8 28-164): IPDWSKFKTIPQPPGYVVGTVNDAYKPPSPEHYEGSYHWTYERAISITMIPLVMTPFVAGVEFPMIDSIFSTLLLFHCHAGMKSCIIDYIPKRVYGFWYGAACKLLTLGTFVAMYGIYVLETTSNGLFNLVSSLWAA

[6] = biological target: respiratory chain complex I (Bos taurus, UniProt P03887+P17694+P42026); experiment: MitoCheck complex I activity assay, bovine heart mitochondria; type: biochemical; settings: bovine heart; 2 μM rotenone; read-out: Inhibition (%) of positive control, complex I
Protocol: The enzymatic activities of bovine heart mitochondrial respiratory chain complexes were determined using MitoCheck complex I, complex II/III, and complex IV activity assay kits (Cayman Chemical, Ann Arbor, MI, USA). Bovine heart mitochondria from these kits were used for experiments. The experiments were performed following the manufacturer’s instructions. In the experiments, 2 μM rotenone, 1 mM KCN, and both 1 mM TTFA and 5 μg/ml antimycin A served as positive controls for the inhibition of complex I, complex IV, and complexes II plus III, respectively.
In all experiments, the reaction rate of each enzyme was determined by calculating the slope of the linear portion of the curve. Complex I activity in C. albicans was calculated by subtracting the rotenone-insensitive enzymatic activity (with 10 μM rotenone) from the NADH dehydrogenase activity (without rotenone).
OCRs in isolated mitochondria and intracellular ATP levels were compared between the control and treatment groups using the parametric Dunnett’s multiple-comparison test. P values of <0.05 (comparison of multiple groups) were considered statistically significant. IC50 values were determined from dose-response curves compared with untreated control samples using a four-parameter logistic curve-fitting analysis. Data were analyzed using JMP 13.0 (SAS Institute Japan Ltd., Tokyo, Japan).

NADH dehydrogenase = NADH dehydrogenase activity, C. albicans; type: biochemical, Candida albicans; settings: C. albicans; 10 μM rotenone
complex III = settings: cited from earlier work
[7] = system: isolated yeast mitochondria; experiment: Mitochondrial oxygen consumption (MitoXpress probe); type: biochemical, Saccharomyces cerevisiae
Protocol: S. cerevisiae from frozen stock (−80°C) was inoculated into yeast extract-peptone-glucose (YPD) medium (1% yeast extract, 2% peptone, and 2% glucose) and grown for 24 h at 30°C. The cultured cells were subcultured into yeast extract-peptone-galactose (YPGal) medium (1% yeast extract, 2% peptone, 2% galactose, and 0.1% glucose) and incubated overnight with continuous shaking at 30°C. When the optical density at 600 nm reached approximately 1.0, the cells were collected by centrifugation (3,000 × g at room temperature for 5 min). Intact mitochondria were isolated as per a previously described protocol ([35]) with minor modifications as follows. Yeast cells were converted to spheroplasts by incubation with Zymolyase-20T (Nacalai Tesque, Inc., Kyoto, Japan) (4 mg of Zymolyase-20T/g [wet weight] of cells) and disrupted using a Dounce homogenizer. The crude mitochondrial fraction was isolated by differential centrifugation ([35]). […]. The mitochondrial protein concentration was determined using the DC protein assay (Bio-Rad Laboratories, Inc., Hercules, CA, USA) following the manufacturer’s instructions. The mitochondrial stock solution was maintained on ice during the oxygen consumption experiment.
The mitochondrial oxygen consumption was measured using a phosphorescent oxygen-sensitive probe, MitoXpress-Xtra (Agilent Technologies, Santa Clara, CA, USA), as described previously ([16], [36]). Succinate was used as a respiratory substrate in this assay. […] A microplate reader, PHERAstar Plus (BMG Labtech GmbH, Ortenberg, Germany), was used to read. The time-resolved fluorescence protocol was set to read the plate at 1.5-min intervals for 60 min at an excitation wavelength of 337 nm, an emission wavelength of 665 nm, a delay time of 40 μs, and a gate time of 100 μs at 30°C.
[…]. […] For quantitative assessment, OCR was determined from the slope of the initial 7.5 min. OCR is expressed as micromolar of O2 per minute per milligram of protein.
The drug concentration was expressed as micromoles per milligram of protein. […]

Which results are given for `CCCCCC[C@H]1C(=O)O[C@H](C)[C@H](NC(=O)c2cccc(NC=O)c2O)C(=O)O[C@@H](C)[C@@H]1OC(=O)CC(C)C` [Antimycin A]?
inhibition at 5 µg/mL [1]: 92%; effect on oxygen consumption in whole yeast cells (whole yeast cells): completely and immediately inhibited respiration; inhibition at 10 µg/mL [2]: 98%; effect on intracellular ATP level (Saccharomyces cerevisiae): significantly decreased; inhibition at 10 µg/mL [3]: 97%

Which “effect on oxygen consumption in whole yeast cells” value (whole yeast cells) does the source give for `N#CC(C#N)=NNc1cccc(Cl)c1` [CCCP, carbonyl cyanide m-chlorophenylhydrazone] here?
The value was “stimulated oxygen consumption”.

With `O=C(O)CC(=O)O` [Malonic acid] as the molecule, how does the inhibition at 10000 µM [4] read?
The inhibition at 10000 µM was 100%.

What about the inhibition at 10000 µM [5] of the same molecule?
Its inhibition at 10000 µM is 100%.

And the inhibition at 10000 µM [2]?
Its inhibition at 10000 µM is 98%.

What about the inhibition at 10000 µM [3] of the same molecule?
Its inhibition at 10000 µM is 97%.

Which inhibition at 2 µM [6] does the source give for `C=C(C)[C@H]1Cc2c(ccc3c2O[C@@H]2COc4cc(OC)c(OC)cc4[C@@H]2C3=O)O1` [Rotenone, rotenone, reference compound] here?
Its inhibition at 2 µM is 68%.

And the “Inhibition (%) of positive control, NADH dehydrogenase (including Complex I)” value (NADH dehydrogenase)?
Its value is 59%.

For `O=C(CC(=O)C(F)(F)F)c1cccs1` [TTFA, 2-thenoyltrifluoroacetone, reference compound], which inhibition at 1000 µM [1] is on record?
The inhibition at 1000 µM was 86%.

With `C/C=C/[C@@H]1[C@H]2C[C@@H](C)CC[C@@H]2C(C)=C[C@H]1C(=O)c1c(O)c(-c2ccc(O)cc2)c[nH]c1=O` [ilicicolin H] as the molecule, how does the “selectivity between yeast and bovine complex III” value (complex III) read?
The value was > 70 fold.

Which “effect on mitochondrial oxygen consumption rate (OCR)” value ([7]; ADP-stimulated condition (succinate + ADP)) does the source give for Oligomycin A here?
The value was “significantly inhibited”.

What about the “effect on mitochondrial oxygen consumption rate (OCR)” value ([7]; basal condition (succinate, absence of ADP)) of the same molecule?
The value was “did not decrease the OCR”.
